{"source": "paper PMC4627284", "about": "“High-throughput simultaneous screen and counterscreen identifies homoharringtonine as synthetic lethal with von Hippel-Lindau loss in renal cell carcinoma” (Oncotarget, 2015)", "key": {"[1]": {"system": "VHL-deficient 786-O cells", "experiment": "High-throughput simultaneous screen and counterscreen, 1:1 mix of EV^GFP and VHL^mCh 786-O cells, fluorescence imaging", "type": "cell-based, human", "details": "2 nM; equally affected VHL-deficient and VHL-reconstituted cells", "excerpt": "To identify small molecule compounds synthetic lethal with VHL, we carried out an unbiased cell-based screen of a chemical library of ~12,800 compounds using 786-O cells, an extensively studied cell line derived from a VHL-deficient primary human ccRCC [26]. 786-O cells were stably transfected with either an empty vector (EV) control or reconstituted with an HA-tagged VHL cDNA. […] To distinguish between the two otherwise isogenic cell lines, we transduced the VHL-deficient 786-O cells with a histone H2B-GFP reporter and the VHL-reconstituted cells with an H2B-mCherry reporter. The histone proteins drive the fluorochrome to nuclei facilitating cell identification and segmentation algorithms (Figure 1A and 1B). […]\nFigure 1 Screening strategy to identify compounds that are synthetic lethal with VHL A. Schematic diagram of a ~12,800 chemical library synthetic lethal screen. […] Fluorescence imaging (using the BD Pathway 855 imager) was used to identify compounds preferentially depleting VHL-deficient/GFP-positive cells after cells were segmented. B. Left panel: Representative image of fluorescence signal from Hoescht-labeled 786-O cells. Right panel: overlay of GFP fluorescence signal (green; from 786-O EV^GFP cells) and mCherry fluorescence nuclear signal (red; VHL^mCh cells). […] Toxicity was determined as ≤100 VHL^mCh cells per field. […]"}, "[2]": {"system": "VHL-mutant patient-derived ccRCC tumorgraft lines", "experiment": "ccRCC tumorgraft model, six VHL-mutant tumorgraft lines", "type": "in vivo, NOD/SCID mice", "details": "0.5 mg/kg IP once every 48 hours, positive control", "experimental": "We selected 6 independently-derived ccRCC tumorgraft lines that were confirmed to have VHL mutation. The mice (3-5 mice per tumorgraft line) were treated with either HHT (0.7 mg/kg), vehicle (as a negative control), or rapamycin (0.5 mg/kg; as a positive control). In total, 65 tumorgraft bearing mice were evaluated for these experiments in time courses lasting ~28 days, with tumor growth measured every 3 or 4 days.\nFigure 3 HHT inhibits tumor growth in a ccRCC tumorgraft model A-F, Tumorgraft lines were treated with vehicle control, HHT (0.7 mg/kg), rapamycin (0.5 mg/kg), (or the combination, where indicated) and tumor growth was measured on the indicated days. Day 0 represents the first day of treatment.\nTumorgrafts were generated and propagated as described previously, with tumor samples implanted subcutaneously into the flank of the mouse for drug trials. Briefly, 4- to 8-week-old NOD/SCID mice were anesthetized with isoflurane and implanted subcutaneously with 64 mm^3 tumor fragments (cohorts 2-20). Once tumors reached an average of at least ~250 mm^3, drug treatment was begun. The mice were treated with vehicle, 0.7 mg/kg homoharringtonine (HHT) via gavage twice daily, or 0.5 mg/kg rapamycin given by IP injection once every 48 hours. Tumor size (volume) was measured twice weekly and was obtained by multiplying tumor length, width, and depth using calipers. To assess toxicity, mouse weight was monitored once weekly.\nSections from tumors were stained with hematoxylin and eosin (H&E) as described previously."}}, "data": [{"smiles": "CO[C@H]1C[C@@H]2CC[C@@H](C)[C@@](O)(O2)C(=O)C(=O)N2CCCC[C@H]2C(=O)O[C@H]([C@H](C)C[C@@H]2CC[C@@H](O)[C@H](OC)C2)CC(=O)[C@H](C)/C=C(\\C)[C@@H](O)[C@@H](OC)C(=O)[C@H](C)C[C@H](C)/C=C/C=C/C=C/1C", "note": "[rapamycin, Rapamycin (sirolimus)]", "values": [{"measurement": "effect on cell proliferation", "setting": "[1]", "value": "modestly reduced cell proliferation"}, {"measurement": "response of tumorgraft lines", "setting": "[2]", "value": "Most lines responded"}]}]}
